# From US10081630B2, “Radioactive halogen-labeled pyrido [1,2-A] benzimidazole derivative compound” (KYOTO UNIVERSITY, priority 2015, dated 2018)
# Columns and labels:
# [1] = system: tau accumulated in the brain with AD; assay: In vitro autoradiography using autopsied brain tissue of Alzheimer's disease patient; assay type: binding, human; conditions: for radioactivity accumulation in the brain tissue section of the frontal lobe / radioactivity accumulation in the brain tissue section of the temporal lobe: AD patient autopsied brain section, 370 kBq/mL, 2 hours room temperature; for nonspecific binding to the brain white matter: AD patient autopsied brain sections; for visualization of tau (autoradiography compared with tau and Aβ immunostaining): AD patient temporal lobe section, adjacent sections immunostained (AT8, BC05)
# Protocol: (Evaluation 1) In Vitro Autoradiography Using Autopsied Brain Tissue of Alzheimer's Disease Patient (1) In Vitro Autoradiography
# Autopsied brain tissue sections of an Alzheimer's disease (AD) patient (sections from a frontal lobe site and a temporal lobe site, 6 μm) were used, which were provided from Graduate School of Medicine, Kyoto University and National Cerebral and Cardiovascular Center Hospital. Deparaffinization treatment was performed by washing with xylene (15 min×2), ethanol (1 min×2), a 90 vol % aqueous ethanol solution (1 min×1), an 80 vol % aqueous ethanol solution (1 min×1), a 70 vol % aqueous ethanol solution (1 min×1), and purified water (2.5 min×2). A 10 vol % aqueous ethanol solution of each radioactive iodine-labeled BIP derivative compound (370 kBq/mL) obtained by the method shown in Example 7 was added thereto, and the tissue sections were incubated at room temperature for 2 hours. The tissue sections were washed with a 50 vol % aqueous ethanol solution (1 hr×1), then exposed to an imaging plate (BAS-SR2025 manufactured by Fujifilm Corp.), and analyzed using a bioimaging analyzer (bioimaging analyzer BAS-5000 manufactured by Fujifilm Corp.). Multi Gauge manufactured by Fujifilm Corp. was used in quantitative analysis.
# FIGS. 5E and 5F show the results obtained using [^125I]BIP-NMe2. FIGS. 5G and 5H show the results obtained using [^125I]BIP-OMe. FIGS. 5I and 5J show the results obtained using [^125I]BIP-Me. FIGS. 5E, 5G, and 5I show the results obtained using the brain tissue section of the frontal lobe. FIGS. 5F, 5H, and 5J show the results obtained using the brain tissue section of the temporal lobe.
# Tau and Aβ were immunostained using sections adjacent to the autopsied AD brain tissue sections used in autoradiography. An anti-phosphorylated tau monoclonal antibody (AT8, manufactured by Thermo Fisher Scientific Inc.) was used as a primary antibody in the immunostaining of tau, and an anti-Aβ1-42 monoclonal antibody (BC05, manufactured by Wako Pure Chemical Industries, Ltd.) was used as a primary antibody in the immunostaining of Aβ. Deparaffinization treatment was performed by washing with xylene (15 min×2), ethanol (1 min×2), a 90 vol % aqueous ethanol solution (1 min×1), an 80 vol % aqueous ethanol solution (1 min×1), a 70 vol % aqueous ethanol solution (1 min×1), and purified water (2.5 min×2). The antigens were retrieved by autoclaving (15 min) in a 0.01 mol/L citrate buffer solution (pH 6.0) and formic acid treatment (5 min). The tissue sections were washed with running water (5 min) and then washed with PBS-Tween 20 (2 min×1). The tissue sections were reacted with primary antibody solutions at room temperature for 1 hour and then washed with PBS-Tween 20 (5 min×3). The tissue sections were reacted with Histofine Simple Stain MAX-PO (MULTI) (manufactured by Nichirei Biosciences Inc.) at room temperature for 30 minutes and then washed with PBS-Tween 20 (3 min×3) and TBS (5 min×1). Finally, the tissue sections were reacted with a DAB solution at room temperature for 1 minute. The tissue sections were washed with distilled water (1 min×1) to terminate the reaction. The brain tissue sections were mounted on slides and then observed under a microscope (BZ-9000 manufactured by Keyence Corporation).
# FIGS. 5A and 5B show the results obtained using the brain tissue section of the frontal lobe. FIGS. 5C and 5D show the results obtained using the brain tissue section of the temporal lobe. FIGS. 5A and 5C show the results of immunostaining with the antibody against tau. FIGS. 5B and 5D show the results of immunostaining with the antibody against Aβ.
# [2] = Evaluation of in vivo radioactivity distribution in normal mouse; conditions: normal ddY male mice, tail vein; for radioactivity distribution, Blood / radioactivity distribution, Brain / radioactivity distribution, Heart / radioactivity distribution, Intestine / radioactivity distribution, Kidney / radioactivity distribution, Liver / radioactivity distribution, Lung / radioactivity distribution, Pancreas / radioactivity distribution, Spleen / radioactivity distribution, Stomach / radioactivity distribution, Thyroid gland: mean (SD)
# Protocol: (Evaluation 2) Evaluation of In Vivo Radioactivity Distribution in Normal Mouse
# Each compound of [^125I]BIP-NMe2, [^125I]BIP-OMe, and [^125I]BIP-Me synthesized according to the method shown in Example 7 was diluted with saline containing 10 vol % ethanol and 0.1 vol % Tween 80. Each radioactive iodine-labeled BIP derivative compound was administered to a group of 5-week-old ddY male mice (26 to 28 g; each group involved 5 mice) from the tail veins thereof at 19.6 to 29.4 kBq (100 μL) per mouse. After 2, 10, 30, or 60 minutes, the mice were slaughtered. After blood collection, the organs were taken out, and their weights and radioactivity were measured.
# In Tables 2 to 4, the numerical values shown in the column “Time after administration” are means of % ID for the stomach and the thyroid gland and means of % ID/g for the other tissues with standard deviation (SD) shown in parenthesis.
smiles,measurement,setting,value
"Cc1ccn2c(c1)nc1cc([125I])ccc12 [[^125I]BIP-Me, 7-[^125I]iodo-3-methylbenzo[4,5]imidazo[1,2-a]pyridine]",radioactivity accumulation in the brain tissue section of the frontal lobe,[1],none
same,radioactivity accumulation in the brain tissue section of the temporal lobe,[1],exhibited radioactivity accumulation in only the brain tissue section of the temporal lobe
same,nonspecific binding to the brain white matter,[1],low
same,visualization of tau (autoradiography compared with tau and Aβ immunostaining),[1],clearly visualizes tau accumulated in the brain with AD
same,clearance from the brain,[2],rapid clearance from the brain
same,transfer to the brain early after administration,[2],high transfer to the brain
same,"radioactivity distribution, Blood",[2]; 2 min after administration,3.63(0.19) % ID/g
same,"radioactivity distribution, Brain",[2]; 2 min after administration,4.28(0.50) % ID/g
same,"radioactivity distribution, Heart",[2]; 2 min after administration,4.40(0.59) % ID/g
same,"radioactivity distribution, Intestine",[2]; 2 min after administration,3.38(0.55) % ID/g
same,"radioactivity distribution, Kidney",[2]; 2 min after administration,7.32(0.61) % ID/g
same,"radioactivity distribution, Liver",[2]; 2 min after administration,19.7(2.89) % ID/g
same,"radioactivity distribution, Lung",[2]; 2 min after administration,6.54(0.76) % ID/g
same,"radioactivity distribution, Pancreas",[2]; 2 min after administration,3.85(0.39) % ID/g
same,"radioactivity distribution, Spleen",[2]; 2 min after administration,4.22(0.43) % ID/g
same,"radioactivity distribution, Stomach",[2]; 2 min after administration,2.68(0.25) % ID
same,"radioactivity distribution, Thyroid gland",[2]; 2 min after administration,0.06(0.03) % ID
same,"radioactivity distribution, Blood",[2]; 10 min after administration,2.37(0.22) % ID/g
same,"radioactivity distribution, Brain",[2]; 10 min after administration,0.94(0.17) % ID/g
same,"radioactivity distribution, Heart",[2]; 10 min after administration,1.61(0.19) % ID/g
same,"radioactivity distribution, Intestine",[2]; 10 min after administration,14.2(5.56) % ID/g
same,"radioactivity distribution, Kidney",[2]; 10 min after administration,6.75(0.83) % ID/g
same,"radioactivity distribution, Liver",[2]; 10 min after administration,13.7(1.67) % ID/g
same,"radioactivity distribution, Lung",[2]; 10 min after administration,2.37(0.31) % ID/g
same,"radioactivity distribution, Pancreas",[2]; 10 min after administration,1.38(0.29) % ID/g
same,"radioactivity distribution, Spleen",[2]; 10 min after administration,1.94(0.29) % ID/g
same,"radioactivity distribution, Stomach",[2]; 10 min after administration,6.52(1.23) % ID
same,"radioactivity distribution, Thyroid gland",[2]; 10 min after administration,0.03(0.02) % ID
same,"radioactivity distribution, Blood",[2]; 30 min after administration,1.53(0.52) % ID/g
same,"radioactivity distribution, Brain",[2]; 30 min after administration,0.14(0.03) % ID/g
same,"radioactivity distribution, Heart",[2]; 30 min after administration,0.66(0.10) % ID/g
same,"radioactivity distribution, Intestine",[2]; 30 min after administration,19.5(2.03) % ID/g
same,"radioactivity distribution, Kidney",[2]; 30 min after administration,4.05(1.19) % ID/g
same,"radioactivity distribution, Liver",[2]; 30 min after administration,7.32(0.71) % ID/g
same,"radioactivity distribution, Lung",[2]; 30 min after administration,1.14(0.11) % ID/g
same,"radioactivity distribution, Pancreas",[2]; 30 min after administration,0.50(0.08) % ID/g
same,"radioactivity distribution, Spleen",[2]; 30 min after administration,0.60(0.13) % ID/g
same,"radioactivity distribution, Stomach",[2]; 30 min after administration,7.05(2.50) % ID
same,"radioactivity distribution, Thyroid gland",[2]; 30 min after administration,0.02(0.00) % ID
same,"radioactivity distribution, Blood",[2]; 60 min after administration,0.77(0.12) % ID/g
same,"radioactivity distribution, Brain",[2]; 60 min after administration,0.04(0.00) % ID/g
same,"radioactivity distribution, Heart",[2]; 60 min after administration,0.36(0.07) % ID/g
same,"radioactivity distribution, Intestine",[2]; 60 min after administration,28.7(5.09) % ID/g
same,"radioactivity distribution, Kidney",[2]; 60 min after administration,2.19(1.23) % ID/g
same,"radioactivity distribution, Liver",[2]; 60 min after administration,4.69(0.54) % ID/g
same,"radioactivity distribution, Lung",[2]; 60 min after administration,0.65(0.11) % ID/g
same,"radioactivity distribution, Pancreas",[2]; 60 min after administration,0.40(0.24) % ID/g
same,"radioactivity distribution, Spleen",[2]; 60 min after administration,0.36(0.10) % ID/g
same,"radioactivity distribution, Stomach",[2]; 60 min after administration,7.43(1.29) % ID
same,"radioactivity distribution, Thyroid gland",[2]; 60 min after administration,0.01(0.00) % ID
"CN(C)c1ccn2c(c1)nc1cc([125I])ccc12 [[^125I]BIP-NMe2, 7-[^125I]iodo-3-dimethylaminopyrido[1,2-a]benzimidazole]",radioactivity accumulation in the brain tissue section of the frontal lobe,[1],none
same,radioactivity accumulation in the brain tissue section of the temporal lobe,[1],exhibited radioactivity accumulation in only the brain tissue section of the temporal lobe
same,nonspecific binding to the brain white matter,[1],low
same,visualization of tau (autoradiography compared with tau and Aβ immunostaining),[1],clearly visualizes tau accumulated in the brain with AD
same,clearance from the brain,[2],rapid clearance from the brain
same,transfer to the brain early after administration,[2],high transfer to the brain
same,"radioactivity distribution, Blood",[2]; 2 min after administration,2.91(0.75) % ID/g
same,"radioactivity distribution, Brain",[2]; 2 min after administration,3.98(0.32) % ID/g
same,"radioactivity distribution, Heart",[2]; 2 min after administration,6.38(1.09) % ID/g
same,"radioactivity distribution, Intestine",[2]; 2 min after administration,3.07(0.52) % ID/g
same,"radioactivity distribution, Kidney",[2]; 2 min after administration,14.3(1.91) % ID/g
same,"radioactivity distribution, Liver",[2]; 2 min after administration,9.78(2.50) % ID/g
same,"radioactivity distribution, Lung",[2]; 2 min after administration,8.80(1.70) % ID/g
same,"radioactivity distribution, Pancreas",[2]; 2 min after administration,5.66(1.03) % ID/g
same,"radioactivity distribution, Spleen",[2]; 2 min after administration,2.97(0.92) % ID/g
same,"radioactivity distribution, Stomach",[2]; 2 min after administration,1.71(0.43) % ID
same,"radioactivity distribution, Thyroid gland",[2]; 2 min after administration,0.05(0.03) % ID
same,"radioactivity distribution, Blood",[2]; 10 min after administration,1.48(0.18) % ID/g
same,"radioactivity distribution, Brain",[2]; 10 min after administration,1.66(0.16) % ID/g
same,"radioactivity distribution, Heart",[2]; 10 min after administration,2.53(0.24) % ID/g
same,"radioactivity distribution, Intestine",[2]; 10 min after administration,7.45(0.50) % ID/g
same,"radioactivity distribution, Kidney",[2]; 10 min after administration,17.0(1.70) % ID/g
same,"radioactivity distribution, Liver",[2]; 10 min after administration,18.1(0.53) % ID/g
same,"radioactivity distribution, Lung",[2]; 10 min after administration,3.59(0.43) % ID/g
same,"radioactivity distribution, Pancreas",[2]; 10 min after administration,4.77(0.27) % ID/g
same,"radioactivity distribution, Spleen",[2]; 10 min after administration,5.15(0.84) % ID/g
same,"radioactivity distribution, Stomach",[2]; 10 min after administration,3.30(0.49) % ID
same,"radioactivity distribution, Thyroid gland",[2]; 10 min after administration,0.03(0.01) % ID
same,"radioactivity distribution, Blood",[2]; 30 min after administration,1.18(0.26) % ID/g
same,"radioactivity distribution, Brain",[2]; 30 min after administration,0.38(0.03) % ID/g
same,"radioactivity distribution, Heart",[2]; 30 min after administration,1.00(0.15) % ID/g
same,"radioactivity distribution, Intestine",[2]; 30 min after administration,14.5(3.43) % ID/g
same,"radioactivity distribution, Kidney",[2]; 30 min after administration,7.45(1.11) % ID/g
same,"radioactivity distribution, Liver",[2]; 30 min after administration,12.7(1.35) % ID/g
same,"radioactivity distribution, Lung",[2]; 30 min after administration,1.77(0.31) % ID/g
same,"radioactivity distribution, Pancreas",[2]; 30 min after administration,1.51(0.19) % ID/g
same,"radioactivity distribution, Spleen",[2]; 30 min after administration,2.97(0.44) % ID/g
same,"radioactivity distribution, Stomach",[2]; 30 min after administration,6.35(1.13) % ID
same,"radioactivity distribution, Thyroid gland",[2]; 30 min after administration,0.02(0.01) % ID
same,"radioactivity distribution, Blood",[2]; 60 min after administration,0.93(0.23) % ID/g
same,"radioactivity distribution, Brain",[2]; 60 min after administration,0.16(0.01) % ID/g
same,"radioactivity distribution, Heart",[2]; 60 min after administration,0.63(0.05) % ID/g
same,"radioactivity distribution, Intestine",[2]; 60 min after administration,23.5(3.65) % ID/g
same,"radioactivity distribution, Kidney",[2]; 60 min after administration,5.45(1.90) % ID/g
same,"radioactivity distribution, Liver",[2]; 60 min after administration,5.82(0.91) % ID/g
same,"radioactivity distribution, Lung",[2]; 60 min after administration,0.99(0.07) % ID/g
same,"radioactivity distribution, Pancreas",[2]; 60 min after administration,0.80(0.15) % ID/g
same,"radioactivity distribution, Spleen",[2]; 60 min after administration,1.97(0.25) % ID/g
same,"radioactivity distribution, Stomach",[2]; 60 min after administration,7.59(1.39) % ID
same,"radioactivity distribution, Thyroid gland",[2]; 60 min after administration,0.01(0.00) % ID
